Reference: the supplement of paper PMC11451515

How the values were obtained:
Details in all cases: 48 h
[1] = system: NOMO1; test: AUC of viability dose-response curve (% viability x log10 dose units); higher = less sensitive
In short: (§1)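 Viability of medium-adapted leukemia cells was measured by CellTiter-Glo One luminescence after 48 h at 37°C with library compounds in DMSO. Doses were 11 threefold steps from 47 μM to 0.79 nM, in 1536-well plates at 500 or 1000 cells/well. Signals were normalised per plate to DMSO and cell-free wells and fitted with a four-parameter log-logistic model on log10 dose. Area under the curve was integrated by trapezoidal rule, with curves exceeding full viability scaled and failed quality-control curves removed.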

[2] = system: P12-Ichikawa; test: as above
In short: as §1

[3] = system: SEM cells; test: as above
In short: as §1

[4] = system: NOMO1; test: cell viability relative to DMSO control; higher = less cytotoxic
In short: (§2)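 Library compounds in DMSO were pin-dosed in an 11-point threefold series (47 μM to 0.79 nM) onto leukemia cells in 1536-well plates (5 μl). Plates held 500 cells/well of NOMO1 or SEM or 1000 cells/well of P12-Ichikawa, each adapted for at least four passages in each medium. Luminescence was read with CellTiter-Glo One after 48 h at 37°C. Viability means the per-plate percentage relative to DMSO wells, using cell-free wells as background.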

[5] = system: P12-Ichikawa; test: as above
In short: as §2

[6] = system: SEM cells; test: as above
In short: as §2

[O-]C(=O)C/1=N/C(=O)NC(=O)N1
AUC of viability dose-response curve
Details	[1]	[2]	[3]
HPLM + 10% dialyzed FBS	444	441	423
RPMI 5 mM glucose + 10% FBS	434	427	412
RPMI 5 mM glucose + 10% dialyzed FBS	408	420	438

cell viability [%]
Details	[4]	[5]	[6]
HPLM + 10% dialyzed FBS, 0.000781 µM	87.7	99	95.8
HPLM + 10% dialyzed FBS, 0.00234 µM	108	97	99.2
HPLM + 10% dialyzed FBS, 0.00702 µM	92.9	98.3	93.4
HPLM + 10% dialyzed FBS, 0.0211 µM	96.9	93.3	111
HPLM + 10% dialyzed FBS, 0.0632 µM	101	102	85.1
HPLM + 10% dialyzed FBS, 0.19 µM	95.1	98	20.6
HPLM + 10% dialyzed FBS, 0.569 µM	86.3	90.1	94.8
HPLM + 10% dialyzed FBS, 1.71 µM	96.9	91.2	99.8
HPLM + 10% dialyzed FBS, 5.12 µM	85.4	81.8	100
HPLM + 10% dialyzed FBS, 15.4 µM	83.4	80.9	91.6
HPLM + 10% dialyzed FBS, 46.1 µM	88.9	83.4	84.3
RPMI 5 mM glucose + 10% FBS, 0.000781 µM	93.5	92.2	93.7
RPMI 5 mM glucose + 10% FBS, 0.00234 µM	96.8	97.2	99.6
RPMI 5 mM glucose + 10% FBS, 0.00702 µM	99.9	90	95.6
RPMI 5 mM glucose + 10% FBS, 0.0211 µM	88.9	96.6	93.6
RPMI 5 mM glucose + 10% FBS, 0.0632 µM	92.8	90.2	87.4
RPMI 5 mM glucose + 10% FBS, 0.19 µM	91.8	92.3	34.2
RPMI 5 mM glucose + 10% FBS, 0.569 µM	86.3	87.6	90.8
RPMI 5 mM glucose + 10% FBS, 1.71 µM	91.3	91.8	83.7
RPMI 5 mM glucose + 10% FBS, 5.12 µM	85.4	82.6	100
RPMI 5 mM glucose + 10% FBS, 15.4 µM	80.9	82.1	88.1
RPMI 5 mM glucose + 10% FBS, 46.1 µM	93.1	80.2	83.7
RPMI 5 mM glucose + 10% dialyzed FBS, 0.000781 µM	90.2	90.6	97.1
RPMI 5 mM glucose + 10% dialyzed FBS, 0.00234 µM	93.2	89.4	100
RPMI 5 mM glucose + 10% dialyzed FBS, 0.00702 µM	88.2	88.4	101
RPMI 5 mM glucose + 10% dialyzed FBS, 0.0211 µM	86.2	95.8	106
RPMI 5 mM glucose + 10% dialyzed FBS, 0.0632 µM	90.8	92.8	100
RPMI 5 mM glucose + 10% dialyzed FBS, 0.19 µM	92.8	81.8	34.7
RPMI 5 mM glucose + 10% dialyzed FBS, 0.569 µM	81.1	85.3	96.8
RPMI 5 mM glucose + 10% dialyzed FBS, 1.71 µM	78.5	93.2	89.8
RPMI 5 mM glucose + 10% dialyzed FBS, 5.12 µM	79.9	88	104
RPMI 5 mM glucose + 10% dialyzed FBS, 15.4 µM	77	82.4	88.7
RPMI 5 mM glucose + 10% dialyzed FBS, 46.1 µM	81.8	76.5	91.8

C[C@@H]1CN(Cc2ccc(F)cc2)[C@@H](C)CN1C(=O)c1cc2c(C(=O)C(=O)N(C)C)cn(C)c2cc1Cl
AUC of viability dose-response curve
Details	[1]	[2]	[3]
HPLM + 10% dialyzed FBS	467	471	462
RPMI 5 mM glucose + 10% FBS	474	472	413
RPMI 5 mM glucose + 10% dialyzed FBS	475	471	449

cell viability [%]
Details	[4]	[5]	[6]
HPLM + 10% dialyzed FBS, 0.000781 µM	103	111	97.6
HPLM + 10% dialyzed FBS, 0.00234 µM	121	118	99.7
HPLM + 10% dialyzed FBS, 0.00702 µM	118	118	100
HPLM + 10% dialyzed FBS, 0.0211 µM	119	128	111
HPLM + 10% dialyzed FBS, 0.0632 µM	129	115	111
HPLM + 10% dialyzed FBS, 0.19 µM	139	123	109
HPLM + 10% dialyzed FBS, 0.569 µM	139	125	106
HPLM + 10% dialyzed FBS, 1.71 µM	128	125	102
HPLM + 10% dialyzed FBS, 5.12 µM	131	125	85.6
HPLM + 10% dialyzed FBS, 15.4 µM	123	125	98.2
HPLM + 10% dialyzed FBS, 46.1 µM	74.8	108	97.2
RPMI 5 mM glucose + 10% FBS, 0.000781 µM	103	110	84.5
RPMI 5 mM glucose + 10% FBS, 0.00234 µM	122	114	78.1
RPMI 5 mM glucose + 10% FBS, 0.00702 µM	118	111	85
RPMI 5 mM glucose + 10% FBS, 0.0211 µM	120	126	87.2
RPMI 5 mM glucose + 10% FBS, 0.0632 µM	123	122	101
RPMI 5 mM glucose + 10% FBS, 0.19 µM	124	124	91.1
RPMI 5 mM glucose + 10% FBS, 0.569 µM	124	132	96.8
RPMI 5 mM glucose + 10% FBS, 1.71 µM	108	113	87.4
RPMI 5 mM glucose + 10% FBS, 5.12 µM	114	124	97.6
RPMI 5 mM glucose + 10% FBS, 15.4 µM	115	117	72.3
RPMI 5 mM glucose + 10% FBS, 46.1 µM	118	107	57
RPMI 5 mM glucose + 10% dialyzed FBS, 0.000781 µM	125	119	115
RPMI 5 mM glucose + 10% dialyzed FBS, 0.00234 µM	117	132	104
RPMI 5 mM glucose + 10% dialyzed FBS, 0.00702 µM	115	117	110
RPMI 5 mM glucose + 10% dialyzed FBS, 0.0211 µM	118	124	107
RPMI 5 mM glucose + 10% dialyzed FBS, 0.0632 µM	128	122	119
RPMI 5 mM glucose + 10% dialyzed FBS, 0.19 µM	127	130	108
RPMI 5 mM glucose + 10% dialyzed FBS, 0.569 µM	124	124	108
RPMI 5 mM glucose + 10% dialyzed FBS, 1.71 µM	132	127	109
RPMI 5 mM glucose + 10% dialyzed FBS, 5.12 µM	119	123	82.3
RPMI 5 mM glucose + 10% dialyzed FBS, 15.4 µM	127	118	97.2
RPMI 5 mM glucose + 10% dialyzed FBS, 46.1 µM	111	117	75.4

Cc1cc(OCCC[S+](C)(=O)[O-])cc(C)c1-c1cccc(COc2ccc3c(c2)OC[C@H]3CC(=O)O)c1
AUC of viability dose-response curve
Details	[1]	[2]	[3]
HPLM + 10% dialyzed FBS	466	460	454
RPMI 5 mM glucose + 10% FBS	458	428	448
RPMI 5 mM glucose + 10% dialyzed FBS	434	430	445

cell viability [%]
Details	[4]	[5]	[6]
HPLM + 10% dialyzed FBS, 0.000781 µM	93.7	100	104
HPLM + 10% dialyzed FBS, 0.00234 µM	112	104	113
HPLM + 10% dialyzed FBS, 0.00702 µM	98.7	98.1	110
HPLM + 10% dialyzed FBS, 0.0211 µM	91.3	108	104
HPLM + 10% dialyzed FBS, 0.0632 µM	108	97	107
HPLM + 10% dialyzed FBS, 0.19 µM	97.8	94.8	101
HPLM + 10% dialyzed FBS, 0.569 µM	103	97.4	96.5
HPLM + 10% dialyzed FBS, 1.71 µM	89.9	93.6	99.9
HPLM + 10% dialyzed FBS, 5.12 µM	106	91.6	98.3
HPLM + 10% dialyzed FBS, 15.4 µM	92.8	94.2	112
HPLM + 10% dialyzed FBS, 46.1 µM	67.1	68.6	91.1
RPMI 5 mM glucose + 10% FBS, 0.000781 µM	96.9	105	105
RPMI 5 mM glucose + 10% FBS, 0.00234 µM	95	106	104
RPMI 5 mM glucose + 10% FBS, 0.00702 µM	99.2	110	105
RPMI 5 mM glucose + 10% FBS, 0.0211 µM	102	103	114
RPMI 5 mM glucose + 10% FBS, 0.0632 µM	92.4	101	103
RPMI 5 mM glucose + 10% FBS, 0.19 µM	99.2	100	91.8
RPMI 5 mM glucose + 10% FBS, 0.569 µM	107	98.1	106
RPMI 5 mM glucose + 10% FBS, 1.71 µM	100	84.2	98.4
RPMI 5 mM glucose + 10% FBS, 5.12 µM	98	84.9	85.7
RPMI 5 mM glucose + 10% FBS, 15.4 µM	90.6	86.8	98.6
RPMI 5 mM glucose + 10% FBS, 46.1 µM	57.3	49.3	63.1
RPMI 5 mM glucose + 10% dialyzed FBS, 0.000781 µM	99.2	93.1	97.7
RPMI 5 mM glucose + 10% dialyzed FBS, 0.00234 µM	96.7	96.2	132
RPMI 5 mM glucose + 10% dialyzed FBS, 0.00702 µM	95.9	102	109
RPMI 5 mM glucose + 10% dialyzed FBS, 0.0211 µM	98.4	98.5	118
RPMI 5 mM glucose + 10% dialyzed FBS, 0.0632 µM	96.1	96.1	95.5
RPMI 5 mM glucose + 10% dialyzed FBS, 0.19 µM	92.6	97.7	108
RPMI 5 mM glucose + 10% dialyzed FBS, 0.569 µM	93.7	91.1	109
RPMI 5 mM glucose + 10% dialyzed FBS, 1.71 µM	86.4	84.3	105
RPMI 5 mM glucose + 10% dialyzed FBS, 5.12 µM	85.3	84.7	93.1
RPMI 5 mM glucose + 10% dialyzed FBS, 15.4 µM	89.3	82.4	105
RPMI 5 mM glucose + 10% dialyzed FBS, 46.1 µM	47.1	46.1	65
